From patent publication US8546430B2, “Thalidomide analogs” (P2D, Inc., priority 2003, dated 2013)
“Also recorded” adds a separate entry of the source.

Tests used:
[1] = tested on: TNF-α; assay: Inhibition of LPS-induced TNF-α secretion in human PBMC (ELISA); format: cell-based; details: for IC50 / inhibition at 30 µM / % Inhibition at 30 μM: LPS-induced TNF-α production in PBMC; for TNF-α inhibitory activity (in words): LPS-stimulated PBMC
Procedure: (§1) The action of the these thiothalidomide analogs in inhibiting TNF-α secretion was assessed in human peripheral blood mononuclear cells (PBMC) and the results are shown in Table 1. Freshly prepared PBMCs were utilized in all studies. Blood, 40 ml, was drawn from a volunteer, immediately mixed with 50 U/ml Na heparin and was diluted to 50 ml total volume with sterile PBS. Samples, 20 ml, of this preparation then were layered on 20 ml Ficoll-Paque and were centrifuged (800 g, 20 min). The Ficoll/serum interface, containing PBMCs, was collected, diluted to 200 ml with PBS, and then was centrifuged (800 g, 15 min) to pellet the cells. Thereafter, the recovered pellet was re-suspended in 37° C. tissue culture medium (RPMI/1 mM Sodium pyruvate/10% heat inactivated FBS/2 mM Glutamax) and placed on ice. Recovered cells were counted, pipetted (200 ul of 5×10^5/ml) into 96 well plates, and incubated for an hour (37° C., 5% CO2). Thereafter, appropriate concentrations of test compounds or vehicle (10 ul DMSO) were added to duplicate wells. Following a further hour of incubation, a 10 ul sample of lipopolysaccharide (LPS) (100 ng/ml in supplemented medium) or vehicle was added to induce stimulated and unstimulated cells, respectively, and the cells were incubated overnight. Sixteen hours later, supernatants were collected for quantification of TNF-α levels by ELISA assay (Pierce-Endogen human TNF-α mini kit, Rockford, Ill.) and the use of specific capture and detection monoclonal antibodies, M303E and M302B (Pierce-Endogen), respectively. ELISA plates were read at λ=450 nm and TNF-α levels were determined from a six-point calibration curve that was run concurrently with the test samples. The effect of test drug concentrations on the cellular viability of PBMCs was assessed by MTS assay (Promega, Madison, Wis.) of the cells that provided the supernatant samples assayed for TNF-α levels, described above. It should be understood that this method can be used to test any of the disclosed compounds as a screening assay for readily determining their TNF-α modulating activity, and for selecting them for use in the disclosed method of treating a subject.

[2] = tested on: PBMC; assay: Cellular viability of PBMCs by MTS assay; format: cell-based, human
Procedure: as §1

[3] = tested on: rat aortic ring; assay: Rat aortic ring microvessel growth assay; format: cell-based; details: 0.1-20 μg/ml daily for 4 days; FIGS. 2-11
Procedure: The angiogenesis modulating activity of representative compounds was assessed in a rat aortic ring microvessel growth assay. Briefly, twelve-well tissue culture plates were coated with 250 μl of Matrigel (Becton-Dickinson, Bedford, Mass.) and allowed to gel for 30 min at 37° C. and 5% CO2. Thoracic aortas were excised from 8- to 10-week-old male Sprague Dawley rats. After careful removal of fibroadipose tissues, the aortas were cut into 1-mm-long cross-sections, placed on Matrigel-coated wells, and covered with an additional 250 μl of Matrigel. After the second layer of Matrigel had set, the rings were covered with EGM-II and incubated overnight at 37° C. and 5% CO2. EGM-II consists of endothelial cell basal medium (EBM-II; Clonetics, San Diego, Calif.) plus endothelial cell growth factors provided as the EGM-II Bulletkit (Clonetics). The culture medium was subsequently changed to EBM-II supplemented with 2% fetal bovine serum, 0.25 μg/ml amphotericin B, and 10 μg/ml gentamicin. Aortic rings were treated daily with either the vehicle (0.5% DMSO), carboxyamidotriazole (CAI, 12 μg/ml), thalidomide or thalidomide analogs (0.1-20 μg/ml) for 4 days and photographed on the 5th day using a ×2.5 objective. CAI, a known antiangiogenic agent, was used at higher than clinically achievable concentration as a positive control. Experiments were repeated four times using aortas from four different rats. The area of angiogenic sprouting, reported in square pixels, was quantified using Adobe PhotoShop. Further details of the method are provided in Luzzio et al., J Med Chem.; 46:3793-9, 2003, which is incorporated by reference herein. It should be understood that this method can be used as an assay to rapidly select compounds having a desired angiogenic or anti-angiogenic effect, for example, for use in the disclosed methods of treating a subject.

melting point [°C] | IC50 ([1]; Homo sapiens) [µM] | Molecule | inhibition at 30 µM ([1]; Homo sapiens) [%] | Cell viability at 0.3 μM [2] [%] | Cell viability at 3 μM [2] [%] | Cell viability at 30 μM [2] [%] | TNF-α inhibitory activity (in words) [1] | Toxicity / cytotoxicity (in words) [2] | Angiogenic modulating activity (in words) [3] | other results
114 | – | O=C1c2ccccc2C(=O)N1C1CC=CCC1 (centres unmarked) [Compound 221, 2-(3-Cyclohexenyl)-1H-isoindole-1,3(2H)-dione] | – | – | – | – | – | – | – | –
255 | > 30 | O=C1CCC(N2C(=O)c3ccccc3C2=S)C(=O)N1 (centres unmarked) [Compound 212, 2,3-Dihydro-3-thioxo-2-(2,6-dioxo-3-piperidinyl)-1H-isoindol-1-one] | 23 | 94 | 100 | 94 | – | – | – | Inhibition of TNF-α secretion at 30 μM (in words) [1]: only marginal activity
263 to 265 | 20 | O=C1c2ccccc2C(=O)N1C1CCC(=S)NC1=S (centres unmarked) [Compound 213, 2-(2,6-Dithioxo-3-piperidinyl)-1H-isoindole-1,3(2H)-dione] | 52 | 94 | 87 | 69 | less active than dithioglutarimide 219 | induced increasing cytotoxicity at higher concentrations; also recorded: induces toxicity at high concentration | anti-angiogenic activity at all concentrations tested | –
– | – | CC(=O)Oc1ccccc1C(=O)NC1CCC(=O)NC1=O (centres unmarked) [Compound 24, 2-acetoxy-N-(2,6-dioxopiperidin-3-yl)benzamide] | – | – | – | – | – | – | potent angiogenic activity | –
– | – | S=C1c2ccccc2C(=S)N1C1CC=CCC1 (centres unmarked) [Compound 222, 2-(3-Cyclohexenyl)-1H-isoindol-1,3(2H)-dithione] | – | 96 | 94 | 50 | active TNF-α inhibitors | some toxicity at 30 μM | anti-angiogenic activity at higher concentrations and angiogenic activity at lower concentrations | IC50 [1]: 15 µM; % Inhibition at 30 μM [1]: 86%
– | – | O=C1c2ccccc2C(=NCc2ccccc2)N1Cc1ccccc1 [Compound 210, 3-Benzylimino-2-benzyl-2,3-dihydroisoindol-1-one] | – | – | – | – | – | – | exhibited angiogenic activity | –
> 300 | – | NC(=O)c1cc2ccccc2cc1C(=O)NC1CCC(=O)NC1=O (centres unmarked) [Compound 14, N-(2,6-dioxopiperidin-3-yl)-2,3-naphthalenedicarboxamide] | – | – | – | – | – | – | – | –
135 | > 30 | O=C1CCCC(=S)N1 [Compound 218, 6-Thioxo-2-piperidinone] | 15 | 86 | 84 | > 100 | – | – | – | Inhibition of TNF-α secretion at 30 μM (in words) [1]: minimally inhibited TNF-α secretion
157 | > 30 | O=C(O)CCC(C(=O)O)N1C(=O)c2ccccc2C1=S (centres unmarked) [Compound 211, 2-(1,3-Dihydro-1-oxo-3-thioxo-2H-isoindol-2-yl)-pentanedioic acid] | 20 | 93 | 93 | 86 | lowered potency | – | angiogenic activity at all concentrations tested | –
– | 20 | COC(=O)CCC(C(=O)OC)N1C(=O)c2ccccc2C1=S (centres unmarked) [Compound 208, Dimethyl 2-(1,3-dihydro-1-oxo-3-thioxo-2H-isoindol-2-yl)-pentanedioate] | 56 | 96 | 99 | 93 | – | without toxicity | – | –
– | – | COc1ccc(N2C(=O)c3ccccc3C2=O)c(OC)n1 [Compound 5, 1,3-Dioxo-2-(2,6-dimethoxypyridin-3-yl)-isoindoline] | – | – | – | – | – | – | angiogenic activity at all concentrations tested | –
– | – | CC12CCC(C(=O)NC3CCC(=O)NC3=O)(OC1=O)C2(C)C (centres unmarked) [3-Camphanic amino-2,6-piperidinedione] | – | – | – | – | – | – | potent angiogenic activity at all concentrations tested; also recorded: exhibited angiogenic activity | –
– | – | Monothiophthalimide [Compound 225] | – | 94 | 94 | > 100 | – | without toxicity | – | Inhibition of TNF-α secretion at 30 μM (in words) [1]: marginal TNF-α activity; IC50 [1]: > 30 µM; % Inhibition at 30 μM [1]: 34%
– | – | Nc1ccc2c(=O)n(C3CCC(=O)NC3=O)c(=O)oc2c1 (centres unmarked) [Compound 228, 3-[2′,6′-piperidinedion-3′-yl]-7-amino-2H-1,3-benzoxazine-2,4(3H)-dione] | – | – | – | – | potent inhibitory action on TNF-α | – | – | EC50 ([1]; Homo sapiens, PBMC, TNF-α assay of Example 11): 0.4 µM
67 to 68 | 16 | O=C1c2ccccc2C(=S)N1C1CC=CCC1 (centres unmarked) [Compound 223, 2,3-dihydro-3-thioxo-2-(3-cyclohexenyl)-1H-isoindol-1-one] | 85 | 99 | 89 | 57 | active TNF-α inhibitors | some toxicity at 30 μM | – | –
– | 3 | S=C1NC(=S)c2ccccc21 [Compound 224, dithiophthalimide] | 95 | 83 | 83 | 54 | potent activity | associated with toxicity at 30 μM | angiogenic activity at all concentrations tested | –
– | – | Br.COc1ccc(N2C(=O)c3ccccc3C2=O)c(O)n1 [Compound 6, 1,3-Dioxo-2-(2-hydroxy-6-methoxypyridin-3-yl)-isoindoline hydrobromide] | – | – | – | – | – | – | anti-angiogenic activity in the rat aortic ring assay at all concentrations tested | –
– | 10 | COC(=O)CCC(C(=O)OC)N1C(=S)c2ccccc2C1=S (centres unmarked) [Compound 209, Dimethyl 2-(1,3-dihydro-1,3-dithioxo-2H-isoindol-2-yl)-pentanedioate] | 85 | 89 | 86 | 57 | – | induced cellular toxicity at lower concentrations | – | Fold more potent than 208 ([1]; TNF-α inhibitory action): 2 fold
225 to 226 | > 30 | O=C1NC(=S)CCC1N1C(=O)c2ccccc2C1=O (centres unmarked) [Compound 205, 2-(2-Oxo-6-thioxo-3-piperidinyl)-1H-isoindole-1,3(2H)-dione] | 31 | 96 | 90 | > 100 | – | – | anti-angiogenic activity at higher concentration, and some angiogenic activity at lower concentrations | Inhibition of TNF-α secretion at 30 μM (in words) [1]: only marginal activity
